Measured values reported in US8586591B2, “Aminopyrazine derivative and medicine” (Nippon Shinyaku Co., Ltd., priority 2009, dated 2013).
Where a name gives a salt, the structure may show the parent alone.

Assays:
JAK3 tyrosine kinase = target: T1, JAK3 tyrosine kinase (Homo sapiens, UniProt P52333); assay: Test 1: inhibitory activity to JAK3 tyrosine kinase (ELISA); assay type: biochemical; details: 25 μM ATP in substrate solution, 30° C. for 1 hour, n=2
T1 construct: purchased Carnabioscience Co
T1 sequence (P52333 1-1124): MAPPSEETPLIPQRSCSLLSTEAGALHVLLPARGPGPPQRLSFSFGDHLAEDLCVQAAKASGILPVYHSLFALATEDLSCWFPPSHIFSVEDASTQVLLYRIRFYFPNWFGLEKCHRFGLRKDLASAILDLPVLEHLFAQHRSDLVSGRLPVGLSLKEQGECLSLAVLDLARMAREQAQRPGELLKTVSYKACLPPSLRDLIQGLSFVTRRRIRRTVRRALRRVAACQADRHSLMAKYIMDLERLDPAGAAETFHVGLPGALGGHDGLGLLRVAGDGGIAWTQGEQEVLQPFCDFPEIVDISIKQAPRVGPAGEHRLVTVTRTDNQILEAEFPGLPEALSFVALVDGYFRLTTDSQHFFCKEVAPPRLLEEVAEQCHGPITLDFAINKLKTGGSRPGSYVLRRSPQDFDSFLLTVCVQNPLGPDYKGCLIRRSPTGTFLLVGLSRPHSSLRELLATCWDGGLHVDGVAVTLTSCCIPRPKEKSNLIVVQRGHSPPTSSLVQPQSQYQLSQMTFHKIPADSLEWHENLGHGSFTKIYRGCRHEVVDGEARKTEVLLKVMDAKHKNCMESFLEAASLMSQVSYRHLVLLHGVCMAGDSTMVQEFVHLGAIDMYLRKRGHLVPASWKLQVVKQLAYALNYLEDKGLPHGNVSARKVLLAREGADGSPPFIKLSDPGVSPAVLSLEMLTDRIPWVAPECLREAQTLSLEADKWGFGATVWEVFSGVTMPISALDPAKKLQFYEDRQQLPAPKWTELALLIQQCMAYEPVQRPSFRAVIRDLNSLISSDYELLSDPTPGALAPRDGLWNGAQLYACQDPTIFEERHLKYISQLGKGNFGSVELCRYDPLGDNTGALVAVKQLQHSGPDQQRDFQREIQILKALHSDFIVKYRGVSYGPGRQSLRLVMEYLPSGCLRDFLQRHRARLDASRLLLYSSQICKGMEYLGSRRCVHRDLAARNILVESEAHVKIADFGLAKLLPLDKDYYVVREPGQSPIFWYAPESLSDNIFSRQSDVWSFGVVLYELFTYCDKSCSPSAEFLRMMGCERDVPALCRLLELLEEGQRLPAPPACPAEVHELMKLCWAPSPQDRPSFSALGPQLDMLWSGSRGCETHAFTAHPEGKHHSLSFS
Outline: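 ELISA of JAK3 kinase activity with absorbance read at 450 nm. Compounds were tested from DMSO dilution series at 100-fold the measurement concentrations (1000–0.01 μM), diluted up to 20 times in assay buffer, against a DMSO negative control. IC50 was estimated by non-linear regression of absorbance.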

JAK2 tyrosine kinase = target: T2, JAK2 tyrosine kinase (Homo sapiens, UniProt O60674); assay: Test 1: inhibitory activity to JAK2 tyrosine kinase (ELISA); assay type: biochemical; details: 25 μM ATP in substrate solution, 30° C. for 1 hour, n=2
T2 construct: purchased Carnabioscience Co
T2 sequence (O60674 whole entry): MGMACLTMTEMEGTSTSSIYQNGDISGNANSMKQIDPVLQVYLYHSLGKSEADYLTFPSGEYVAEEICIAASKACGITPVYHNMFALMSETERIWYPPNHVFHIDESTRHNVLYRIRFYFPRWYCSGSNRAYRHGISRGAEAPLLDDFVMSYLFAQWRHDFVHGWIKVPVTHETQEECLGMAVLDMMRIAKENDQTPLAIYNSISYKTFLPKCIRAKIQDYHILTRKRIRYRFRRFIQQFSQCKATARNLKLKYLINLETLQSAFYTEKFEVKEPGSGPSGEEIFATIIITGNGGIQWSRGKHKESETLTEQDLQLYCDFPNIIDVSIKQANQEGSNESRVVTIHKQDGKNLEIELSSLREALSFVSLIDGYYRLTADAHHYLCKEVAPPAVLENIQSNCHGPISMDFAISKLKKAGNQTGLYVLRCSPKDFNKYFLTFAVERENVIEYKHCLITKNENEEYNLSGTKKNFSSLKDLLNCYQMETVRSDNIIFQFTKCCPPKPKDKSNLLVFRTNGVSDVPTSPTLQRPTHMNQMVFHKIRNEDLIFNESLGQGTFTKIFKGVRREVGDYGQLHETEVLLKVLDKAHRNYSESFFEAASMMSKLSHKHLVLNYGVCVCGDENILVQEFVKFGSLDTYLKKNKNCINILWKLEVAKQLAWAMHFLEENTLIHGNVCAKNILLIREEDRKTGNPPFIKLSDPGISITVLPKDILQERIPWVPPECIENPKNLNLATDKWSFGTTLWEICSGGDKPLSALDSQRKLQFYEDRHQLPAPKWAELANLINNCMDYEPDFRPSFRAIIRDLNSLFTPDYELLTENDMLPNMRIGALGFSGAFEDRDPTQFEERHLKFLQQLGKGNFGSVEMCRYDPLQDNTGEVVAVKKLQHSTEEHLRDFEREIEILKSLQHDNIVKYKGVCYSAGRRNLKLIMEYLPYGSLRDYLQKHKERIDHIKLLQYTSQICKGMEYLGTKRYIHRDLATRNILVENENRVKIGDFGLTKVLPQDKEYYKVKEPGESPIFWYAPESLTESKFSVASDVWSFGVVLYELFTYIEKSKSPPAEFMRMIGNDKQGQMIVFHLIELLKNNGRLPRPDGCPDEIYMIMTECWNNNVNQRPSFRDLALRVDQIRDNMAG
Outline: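 This is an ELISA read at A450 (HRP anti-phosphotyrosine antibody, TMB) of biotin-peptide phosphorylation captured on streptavidin. Enzyme solution was 0.75 nM JAK2, and the substrate solution was 625 nM peptide with 25 μM ATP in Tris pH 7.5 buffer. The reaction ran 1 h at 30 °C with compounds in duplicate, and IC50 was fitted non-linearly.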

IC50 (JAK3 tyrosine kinase) [nM] | IC50 (JAK2 tyrosine kinase) [nM] | SMILES
84 | 0.79 | COCCNC(=O)C1CN(c2cc(Nc3cnccn3)nc(N[C@@H](C)c3ccc(F)cc3)n2)C1 [Example 194, (S)-1-{2-[1-(4-Fluorophenyl)ethylamino]-6-(pyrazin-2-ylamino)pyrimidin-4-yl}-N-(2-methoxyethyl) azetidine-3-carboxamide]
50 | 1.2 | C[C@H](Nc1nc(Nc2cnccn2)cc(N2CC(C(=O)N3CCCCC3)C2)n1)c1ccc(F)cc1 [Example 195, (S)-(1-{2-[1-(4-Fluorophenyl)ethylamino]-6-(pyrazin-2-ylamino)pyrimidin-4-yl}azetidin-3-yl)(piperidin-1-yl)methanone]
35 | 0.64 | C[C@H](Nc1nc(Nc2cnccn2)cc(N2CC(C(=O)N3CCOCC3)C2)n1)c1ccc(F)cc1 [Example 196, (S)-(1-{2-[1-(4-Fluorophenyl)ethylamino]-6-(pyrazin-2-ylamino)pyrimidin-4-yl}azetidin-3-yl) (morpholino) methanone]
58 | 1.6 | C[C@H](Nc1nc(Nc2cnccn2)cc(N2CC(C(=O)NC3CC3)C2)n1)c1ccc(F)cc1 [Example 197, (S)—N-(Cyclopropyl)-1-{2-[1-(4-fluorophenyl)ethylamino]-6-(pyrazin-2-ylamino)pyrimidin-4-yl}azetidine-3-carboxamide]
60 | 1.6 | C[C@H](Nc1nc(Nc2cnccn2)cc(N2CC(C(=O)NCC3CC3)C2)n1)c1ccc(F)cc1 [Example 198, (S)—N-(Cyclopropylmethyl)-1-{2-[1-(4-fluorophenyl)ethylamino]-6-(pyrazin-2-ylamino)pyrimidin-4-yl}azetidine-3-carboxamide]
64 | 1.6 | C[C@H](Nc1nc(Nc2cnccn2)cc(N2CC(C(=O)NCCO)C2)n1)c1ccc(F)cc1 [Example 199, (S)-1-{2-[1-(4-Fluorophenyl)ethylamino]-6-(pyrazin-2-ylamino)pyrimidin-4-yl}-N-(2-hydroxyethyl)azetidine-3-carboxamide]
470 | 4.7 | C[C@H](Nc1cc(N2CC(O)C2)cc(Nc2cnccn2)n1)c1ccc(F)cc1 [Example 202, (S)-1-{2-[1-(4-Fluorophenyl)ethylamino]-6-(pyrazin-2-ylamino)pyridin-4-yl}azetidin-3-ol hydrochloride]
120 | 4.5 | C[C@H](Nc1cc(N2CC(O)(C3CC3)C2)cc(Nc2cnccn2)n1)c1ccc(F)cc1 [Example 203, (S)-3-Cyclopropyl-1-{2-[1-(4-fluorophenyl)ethylamino]-6-(pyrazin-2-ylamino)pyridin-4-yl}azetidin-3-ol hydrochloride]
220 | 8.1 | CC(C)C1(O)CN(c2cc(Nc3cnccn3)nc(N[C@@H](C)c3ccc(F)cc3)c2)C1 [Example 204, (S)-1-{2-[1-(4-Fluorophenyl)ethylamino]-6-(pyrazin-2-ylamino)pyridin-4-yl}-3-isopropylazetidin-3-ol hydrochloride]
170 | 2.8 | C[C@H](Nc1cc(N2CC(C)(O)C2)cc(Nc2cnccn2)n1)c1ccc(F)cc1 [Example 205, (S)-1-{2-[1-(4-Fluorophenyl)ethylamino]-6-(pyrazin-2-ylamino)pyridin-4-yl}-3-methylazetidin-3-ol hydrochloride]
360 | 10 | C[C@H](Nc1cc(N2CC(O)(C(F)(F)F)C2)cc(Nc2cnccn2)n1)c1ccc(F)cc1 [Example 206, (S)-1-{2-[1-(4-Fluorophenyl)ethylamino]-6-(pyrazin-2-ylamino)pyridin-4-yl}-3-(trifluoromethyl)azetidin-3-ol hydrochloride]
300 | 7 | C[C@H](Nc1cc(N2CC(F)(F)C2)cc(Nc2cnccn2)n1)c1ccc(F)cc1 [Example 207, (S)-4-(3,3-Difluoroazetidin-1-yl)-N^2-[1-(4-fluorophenyl)ethyl]-N^6-(pyrazin-2-yl)pyridine-2,6-diamine hydrochloride]
100 | 1.4 | CC(=O)Nc1cc(Nc2cnccn2)nc(N[C@@H](C)c2ccc(F)cc2)c1 [Example 208, (S)—N-{2-[1-(4-Fluorophenyl)ethylamino]-6-(pyrazin-2-ylamino)pyridin-4-yl}acetamide]
440 | 7.1 | C[C@H](Nc1cc(NS(C)(=O)=O)cc(Nc2cnccn2)n1)c1ccc(F)cc1 [Example 209, (S)—N-{2-[1-(4-Fluorophenyl)ethylamino]-6-(pyrazin-2-ylamino)pyridin-4-yl}methanesulfonamide hydrochloride]
180 | 3.2 | C[C@H](Nc1cc(NC(N)=O)cc(Nc2cnccn2)n1)c1ccc(F)cc1 [Example 210, (S)-1-[2-[1-(4-Fluorophenyl)ethylamino]-6-(pyrazin-2-ylamino)pyridin-4-yl]urea]
86 | 5.6 | COC1(C2CC2)CN(c2cc(Nc3cnccn3)nc(N[C@@H](C)c3ccc(F)cc3)c2)C1 [Example 211, (S)-4-(3-Cyclopropyl-3-methoxyazetidin-1-yl)-N^2-[1-(4-fluorophenyl)ethyl]-N^6-(pyrazin-2-yl)pyridine-2,6-diamine hydrochloride]
160 | 15 | COC1(C(C)C)CN(c2cc(Nc3cnccn3)nc(N[C@@H](C)c3ccc(F)cc3)c2)C1 [Example 212, (S)—N^2-[1-(4-Fluorophenyl)ethyl]-4-(3-isopropyl-3-methoxyazetidin-1-yl)-N^6-(pyrazin-2-yl)pyridine-2,6-diamine hydrochloride]
130 | 3.2 | COC1(C)CN(c2cc(Nc3cnccn3)nc(N[C@@H](C)c3ccc(F)cc3)c2)C1 [Example 213, (S)—N^2-[1-(4-Fluorophenyl)ethyl]-4-(3-methoxy-3-methylazetidin-1-yl)-N^6-(pyrazin-2-yl)pyridine-2,6-diamine hydrochloride]
380 | 5.5 | Cc1cnc(Nc2cc(-c3cnn(C)c3)cc(N[C@@H](C)c3ccc(F)cc3)n2)cn1 [Example 214, (S)—N^2-[1-(4-Fluorophenyl)ethyl]-4-(1-methyl-1H-pyrazol-4-yl)-N^6-(5-methylpyrazin-2-yl)pyridine-2,6-diamine]
210 | 2.3 | C[C@H](Nc1cc(C2CCN(S(C)(=O)=O)CC2)cc(Nc2cnccn2)n1)c1ccc(F)cc1 [Example 215, (S)—N^2-[1-(4-Fluorophenyl)ethyl]-4-[1-(methanesulfonyl)piperidin-4-yl]-N^6-(pyrazin-2-yl)pyridine-2,6-diamine]
49 | 1.4 | CCC(=O)Nc1cc(Nc2cnccn2)nc(N[C@@H](C)c2ccc(F)cc2)c1 [Example 216, (S)—N-{2-[1-(4-Fluorophenyl)ethylamino]-6-(pyrazin-2-ylamino)pyridin-4-yl}propionamide]
36 | 1.5 | COCCn1cc(-c2cc(Nc3cnccn3)nc(N[C@@H](C)c3ccc(F)cc3)c2)cn1 [Example 217, (S)—N^2-[1-(4-Fluorophenyl)ethyl]-4-[1-(2-methoxyethyl)-1H-pyrazol-4-yl]-N^6-(pyrazin-2-yl)pyridine-2,6-diamine]
85 | 2.2 | C[C@H](Nc1cc(-c2cnn(C3CC3)c2)cc(Nc2cnccn2)n1)c1ccc(F)cc1 [Example 218, (S)-4-(1-Cyclopropyl-1H-pyrazol-4-yl)-N^2-[1-(4-fluorophenyl)ethyl]-N^6-(pyrazin-2-yl)pyridine-2,6-diamine]
69 | 2.6 | COCn1cc(-c2cc(Nc3cnccn3)nc(N[C@@H](C)c3ccc(F)cc3)c2)cn1 [Example 219, (S)—N^2-[1-(4-Fluorophenyl)ethyl]-4-[1-(methoxymethyl)-1H-pyrazol-4-yl]-N^6-(pyrazin-2-yl)pyridine-2,6-diamine]
